IC50 and Ki data for four molecules are collected here from ChEMBL document CHEMBL1909046, “DrugMatrix in vitro pharmacology data”.

5-hydroxytryptamine receptor 4, sequence (O70528 whole entry): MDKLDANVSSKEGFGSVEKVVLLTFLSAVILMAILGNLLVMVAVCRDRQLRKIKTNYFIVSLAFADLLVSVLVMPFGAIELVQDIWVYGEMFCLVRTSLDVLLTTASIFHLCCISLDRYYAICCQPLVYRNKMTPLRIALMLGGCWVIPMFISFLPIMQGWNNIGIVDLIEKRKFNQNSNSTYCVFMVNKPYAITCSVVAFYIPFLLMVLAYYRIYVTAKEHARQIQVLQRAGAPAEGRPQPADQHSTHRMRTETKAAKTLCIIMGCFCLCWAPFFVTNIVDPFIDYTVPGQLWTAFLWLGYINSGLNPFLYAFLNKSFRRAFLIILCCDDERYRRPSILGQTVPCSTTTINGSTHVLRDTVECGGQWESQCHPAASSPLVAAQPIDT
Matrix metalloproteinase-9, sequence (P14780 whole entry): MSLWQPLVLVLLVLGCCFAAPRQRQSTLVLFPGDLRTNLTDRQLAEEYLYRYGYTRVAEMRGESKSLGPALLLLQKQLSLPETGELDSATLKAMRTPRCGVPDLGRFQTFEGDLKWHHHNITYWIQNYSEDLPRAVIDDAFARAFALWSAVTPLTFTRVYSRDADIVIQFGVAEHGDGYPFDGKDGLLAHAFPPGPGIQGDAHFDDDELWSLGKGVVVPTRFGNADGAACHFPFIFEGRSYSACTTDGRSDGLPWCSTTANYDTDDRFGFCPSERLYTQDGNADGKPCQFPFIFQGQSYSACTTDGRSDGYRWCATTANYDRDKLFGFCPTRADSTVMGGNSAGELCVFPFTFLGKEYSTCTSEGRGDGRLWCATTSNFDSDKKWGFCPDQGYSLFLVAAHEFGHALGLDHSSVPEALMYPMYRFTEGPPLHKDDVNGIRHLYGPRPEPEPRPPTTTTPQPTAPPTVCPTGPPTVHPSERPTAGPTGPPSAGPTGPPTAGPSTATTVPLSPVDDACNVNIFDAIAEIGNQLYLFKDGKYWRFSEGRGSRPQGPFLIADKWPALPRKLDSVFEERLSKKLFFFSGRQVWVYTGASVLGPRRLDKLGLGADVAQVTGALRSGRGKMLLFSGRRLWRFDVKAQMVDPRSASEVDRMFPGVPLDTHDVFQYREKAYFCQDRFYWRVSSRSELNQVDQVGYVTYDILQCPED
C-C chemokine receptor type 2, sequence (P41597 whole entry): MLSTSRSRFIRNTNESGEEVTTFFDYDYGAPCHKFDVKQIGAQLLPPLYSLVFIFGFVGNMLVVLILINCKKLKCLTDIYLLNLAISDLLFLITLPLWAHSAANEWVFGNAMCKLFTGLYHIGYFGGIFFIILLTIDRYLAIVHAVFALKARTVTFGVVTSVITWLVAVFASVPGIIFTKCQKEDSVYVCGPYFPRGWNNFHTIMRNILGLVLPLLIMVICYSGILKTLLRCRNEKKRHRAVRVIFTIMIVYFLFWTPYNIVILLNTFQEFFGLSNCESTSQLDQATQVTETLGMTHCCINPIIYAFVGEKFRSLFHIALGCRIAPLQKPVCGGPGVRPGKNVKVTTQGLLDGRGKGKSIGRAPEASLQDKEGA

In one assay the target is T1, Muscarinic acetylcholine receptor M2 (Homo sapiens, UniProt P08172). Also: in other assays of this panel Not Active means under 50% inhibition at 10 µM.
T1 sequence (P08172 whole entry): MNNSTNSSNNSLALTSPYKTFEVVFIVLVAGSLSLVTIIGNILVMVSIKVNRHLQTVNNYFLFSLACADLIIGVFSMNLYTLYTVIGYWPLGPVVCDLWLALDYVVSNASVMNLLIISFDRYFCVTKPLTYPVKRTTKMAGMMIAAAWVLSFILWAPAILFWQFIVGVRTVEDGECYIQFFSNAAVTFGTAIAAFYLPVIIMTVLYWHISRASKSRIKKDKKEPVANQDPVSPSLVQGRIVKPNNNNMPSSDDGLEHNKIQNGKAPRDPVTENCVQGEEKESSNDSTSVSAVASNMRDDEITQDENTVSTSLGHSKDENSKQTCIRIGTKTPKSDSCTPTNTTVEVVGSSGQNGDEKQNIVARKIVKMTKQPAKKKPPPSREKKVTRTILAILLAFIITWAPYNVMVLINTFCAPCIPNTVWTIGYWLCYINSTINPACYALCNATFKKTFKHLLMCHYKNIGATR
Assay: not given
It counts as cell membranes, CHO-K1, Membrane. As to conditions: cho-k1.
With `NC(=O)c1ncn([C@@H]2O[C@H](CO)[C@@H](O)[C@H]2O)n1` [RIBAVIRIN], the IC50 result is “Not Active”.
The same measure, in the same setting: the value for `Nc1nnc(-c2cccc(Cl)c2Cl)c(N)n1` [LAMOTRIGINE] was “Not Active”.
The same measure, in the same setting: the value for `NNC(=O)c1ccncc1` [ISONIAZID] was “Not Active”.
With `COC(=O)C1=C(C)NC(C)=C(C(=O)OC)C1c1ccccc1[N+](=O)[O-]` [NIFEDIPINE], the IC50 result is “Not Active”.

Test system in another assay: not listed separately
The experiment in a line: DRUGMATRIX: Interleukin IL-1 radioligand binding (ligand: [125I] interleukin 1beta). It counts as cell membranes, Membrane. As to conditions: nih3t3; Not Active = under 50% inhibition at 10 µM.
`NC(=O)c1ncn([C@@H]2O[C@H](CO)[C@@H](O)[C@H]2O)n1` [RIBAVIRIN]: the IC50 entry is given as “Not Active” and the Ki result is listed as “Not Active”.
For the molecule `Nc1nnc(-c2cccc(Cl)c2Cl)c(N)n1` [LAMOTRIGINE], the IC50 result is reported as “Not Active” and the Ki result is on record as “Not Active”.
As for `NNC(=O)c1ccncc1` [ISONIAZID], the IC50 result was “Not Active” and the Ki result is given as “Not Active”.
`COC(=O)C1=C(C)NC(C)=C(C(=O)OC)C1c1ccccc1[N+](=O)[O-]` [NIFEDIPINE]: the IC50 entry is recorded as “Not Active” and the Ki entry is reported as “Not Active”.

The target of a further assay is Carbonic anhydrase 2 (Homo sapiens, UniProt P00918). The experiment in a line: DRUGMATRIX: Carbonic Anhydrase II enzyme inhibition (substrate: 4-Nitrophenyl acetate (4-NPA)). It is filed as tissue-based, Erythrocyte. As to conditions: erythrocyte; Not Active = under 50% inhibition at 10 µM.
With `NC(=O)c1ncn([C@@H]2O[C@H](CO)[C@@H](O)[C@H]2O)n1` [RIBAVIRIN], the IC50 result is “Not Active”.
In the case of `Nc1nnc(-c2cccc(Cl)c2Cl)c(N)n1` [LAMOTRIGINE], the IC50 result is recorded as “Not Active”.
Same read-out and setting: in the case of `NNC(=O)c1ccncc1` [ISONIAZID] it was “Not Active”; in that of `COC(=O)C1=C(C)NC(C)=C(C(=O)OC)C1c1ccccc1[N+](=O)[O-]` [NIFEDIPINE], “Not Active”.

The target in a further assay is T2, Amine oxidase [flavin-containing] A (Homo sapiens, UniProt P21397).
T2 sequence (P21397 whole entry): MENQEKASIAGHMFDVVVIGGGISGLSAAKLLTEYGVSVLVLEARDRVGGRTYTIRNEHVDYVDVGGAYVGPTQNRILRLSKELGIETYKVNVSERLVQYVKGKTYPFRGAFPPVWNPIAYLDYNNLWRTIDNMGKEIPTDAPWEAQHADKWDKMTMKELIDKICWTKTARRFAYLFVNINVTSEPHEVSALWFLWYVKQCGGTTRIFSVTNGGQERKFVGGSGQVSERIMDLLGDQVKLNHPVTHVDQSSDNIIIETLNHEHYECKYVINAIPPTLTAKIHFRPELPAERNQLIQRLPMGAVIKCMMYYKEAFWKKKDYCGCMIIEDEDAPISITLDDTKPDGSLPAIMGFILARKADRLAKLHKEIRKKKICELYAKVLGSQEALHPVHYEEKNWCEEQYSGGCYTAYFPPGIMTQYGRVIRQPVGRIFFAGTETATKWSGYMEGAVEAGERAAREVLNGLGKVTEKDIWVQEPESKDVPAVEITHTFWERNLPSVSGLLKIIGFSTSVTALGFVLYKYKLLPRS
Briefly: DRUGMATRIX: Monoamine Oxidase MAO-A enzyme inhibition (substrate: Kynuramine). Details: species or system BTI-TN-5B1-4. As to conditions: bti-tn-5b1-4; Not Active = under 50% inhibition at 10 µM.
`NC(=O)c1ncn([C@@H]2O[C@H](CO)[C@@H](O)[C@H]2O)n1` [RIBAVIRIN]: the IC50 entry is “Not Active”.
With `Nc1nnc(-c2cccc(Cl)c2Cl)c(N)n1` [LAMOTRIGINE], the IC50 result was “Not Active”.
For `NNC(=O)c1ccncc1` [ISONIAZID], the IC50 result was “Not Active”.
In the case of `COC(=O)C1=C(C)NC(C)=C(C(=O)OC)C1c1ccccc1[N+](=O)[O-]` [NIFEDIPINE], the IC50 result is given as “Not Active”.

Another assay addresses 5-hydroxytryptamine receptor 4 (Cavia porcellus, UniProt O70528).
Assay: not given
It is filed as cell membranes, Dunkin-Hartley, Striatum, Membrane.
Conditions: not given
Turning to `NC(=O)c1ncn([C@@H]2O[C@H](CO)[C@@H](O)[C@H]2O)n1` [RIBAVIRIN], the IC50 result is on record as “Not Active”.
As to `Nc1nnc(-c2cccc(Cl)c2Cl)c(N)n1` [LAMOTRIGINE], the IC50 result is reported as “Not Active”.
On the same count and under the same terms, in the case of `NNC(=O)c1ccncc1` [ISONIAZID] it was “Not Active”; in that of `COC(=O)C1=C(C)NC(C)=C(C(=O)OC)C1c1ccccc1[N+](=O)[O-]` [NIFEDIPINE], “Not Active”.

A further assay addresses C-C chemokine receptor type 2 (Homo sapiens, UniProt P41597).
Assay: not given
It is filed as cell membranes, CHO-K1, Membrane. As to conditions: cho-k1.
Regarding `NC(=O)c1ncn([C@@H]2O[C@H](CO)[C@@H](O)[C@H]2O)n1` [RIBAVIRIN], the IC50 result is listed as “Not Active”.
Still for that read-out and setting: the value for `Nc1nnc(-c2cccc(Cl)c2Cl)c(N)n1` [LAMOTRIGINE] was “Not Active”; that for `NNC(=O)c1ccncc1` [ISONIAZID] was “Not Active”.

The same assay, now with this note: read-out: IC50.
Turning to `COC(=O)C1=C(C)NC(C)=C(C(=O)OC)C1c1ccccc1[N+](=O)[O-]` [NIFEDIPINE], the IC50 came to 2190 nM.

Still in this assay, the particulars now being: read-out: Ki.
As to `COC(=O)C1=C(C)NC(C)=C(C(=O)OC)C1c1ccccc1[N+](=O)[O-]` [NIFEDIPINE], the Ki came out at 847 nM.

Another assay concerns the target Matrix metalloproteinase-9 (Homo sapiens, UniProt P14780).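 Also: inhibition of isolated MMP-9 enzyme activity toward a synthetic peptide substrate, from the DrugMatrix protease screening panel; in other assays of this panel Not Active means under 50% inhibition at 10 µM.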
Assay: not given
Conditions: not given
It counts as cell-based.
Turning to `NC(=O)c1ncn([C@@H]2O[C@H](CO)[C@@H](O)[C@H]2O)n1` [RIBAVIRIN], the IC50 result is listed as “Not Active”.
`Nc1nnc(-c2cccc(Cl)c2Cl)c(N)n1` [LAMOTRIGINE]: the IC50 entry is reported as “Not Active”.
Same read-out and setting: the value for `NNC(=O)c1ccncc1` [ISONIAZID] was “Not Active”; that for `COC(=O)C1=C(C)NC(C)=C(C(=O)OC)C1c1ccccc1[N+](=O)[O-]` [NIFEDIPINE] was “Not Active”.

In the next assay the target is T3, Angiotensin-converting enzyme (Oryctolagus cuniculus, UniProt P12822).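 Also: enzymatic inhibition of angiotensin-converting enzyme measured with FAPGG as the substrate; in other assays of this panel Not Active means under 50% inhibition at 10 µM.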
T3 sequence (P12822 whole entry): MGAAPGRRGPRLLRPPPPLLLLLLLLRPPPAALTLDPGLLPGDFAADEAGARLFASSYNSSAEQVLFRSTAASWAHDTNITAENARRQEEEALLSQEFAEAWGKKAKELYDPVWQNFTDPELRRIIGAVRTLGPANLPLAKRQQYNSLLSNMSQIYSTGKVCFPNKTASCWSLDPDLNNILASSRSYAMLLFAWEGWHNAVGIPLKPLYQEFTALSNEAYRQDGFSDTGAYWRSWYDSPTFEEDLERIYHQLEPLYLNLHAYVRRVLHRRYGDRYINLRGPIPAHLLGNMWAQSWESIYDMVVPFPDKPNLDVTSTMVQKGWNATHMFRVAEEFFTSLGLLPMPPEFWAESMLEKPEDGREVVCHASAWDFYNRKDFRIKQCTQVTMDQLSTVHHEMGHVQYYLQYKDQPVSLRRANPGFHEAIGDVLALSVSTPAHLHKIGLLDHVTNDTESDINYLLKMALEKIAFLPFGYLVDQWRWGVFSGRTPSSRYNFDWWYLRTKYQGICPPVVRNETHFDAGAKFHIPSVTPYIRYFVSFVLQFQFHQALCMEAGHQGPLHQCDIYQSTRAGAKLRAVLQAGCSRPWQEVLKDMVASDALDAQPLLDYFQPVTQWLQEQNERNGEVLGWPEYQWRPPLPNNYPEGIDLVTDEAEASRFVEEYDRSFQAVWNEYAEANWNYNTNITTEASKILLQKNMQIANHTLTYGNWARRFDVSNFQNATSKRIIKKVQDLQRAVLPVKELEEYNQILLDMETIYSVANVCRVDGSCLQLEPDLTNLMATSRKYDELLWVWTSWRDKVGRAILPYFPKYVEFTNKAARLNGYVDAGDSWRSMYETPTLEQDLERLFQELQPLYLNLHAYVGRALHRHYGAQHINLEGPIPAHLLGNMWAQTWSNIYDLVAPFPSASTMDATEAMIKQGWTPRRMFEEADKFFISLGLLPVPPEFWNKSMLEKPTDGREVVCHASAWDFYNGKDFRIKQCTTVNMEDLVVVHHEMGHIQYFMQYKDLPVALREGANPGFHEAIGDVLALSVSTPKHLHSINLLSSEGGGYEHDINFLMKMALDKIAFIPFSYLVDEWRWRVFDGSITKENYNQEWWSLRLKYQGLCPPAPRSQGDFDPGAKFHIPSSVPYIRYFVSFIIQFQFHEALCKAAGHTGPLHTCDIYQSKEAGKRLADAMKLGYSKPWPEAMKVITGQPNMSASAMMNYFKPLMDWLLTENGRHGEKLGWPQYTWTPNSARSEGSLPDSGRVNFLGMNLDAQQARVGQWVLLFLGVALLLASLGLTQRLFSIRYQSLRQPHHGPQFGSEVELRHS
The experiment in a line: biochemical. It counts as tissue-based, Lung.
Conditions: not given
For the molecule `NC(=O)c1ncn([C@@H]2O[C@H](CO)[C@@H](O)[C@H]2O)n1` [RIBAVIRIN], the IC50 result was “Not Active”.
The same measure, in the same setting: in the case of `Nc1nnc(-c2cccc(Cl)c2Cl)c(N)n1` [LAMOTRIGINE] it was “Not Active”.
As for `NNC(=O)c1ccncc1` [ISONIAZID], the IC50 result is given as “Not Active”.
`COC(=O)C1=C(C)NC(C)=C(C(=O)OC)C1c1ccccc1[N+](=O)[O-]` [NIFEDIPINE]: the IC50 result is “Not Active”.

Test system in the next assay: not listed separately
The experiment in a line: DRUGMATRIX: Phosphodiesterase PDE3 enzyme inhibition (substrate: [3H]cAMP + cAMP). It counts as tissue-based, Homo sapiens. The following applies: platelet; Not Active = under 50% inhibition at 10 µM.
As for `NC(=O)c1ncn([C@@H]2O[C@H](CO)[C@@H](O)[C@H]2O)n1` [RIBAVIRIN], the IC50 result is given as “Not Active” and the Ki result is “Not Active”.
Regarding `Nc1nnc(-c2cccc(Cl)c2Cl)c(N)n1` [LAMOTRIGINE], the IC50 result is “Not Active” and the Ki result is “Not Active”.
With `NNC(=O)c1ccncc1` [ISONIAZID], the IC50 result is “Not Active” and the Ki result is recorded as “Not Active”.
As for `COC(=O)C1=C(C)NC(C)=C(C(=O)OC)C1c1ccccc1[N+](=O)[O-]` [NIFEDIPINE], the IC50 result is given as “Not Active” and the Ki result is “Not Active”.

The target in a further assay is Tyrosine-protein kinase Lck (Homo sapiens, UniProt P06239). Briefly: DRUGMATRIX: Protein Tyrosine Kinase, LCK enzyme inhibition (substrate: Poly(Glu:Tyr)). It counts as cell-based, Insect cells. The following applies: insect cells; Not Active = under 50% inhibition at 10 µM.
Tyrosine-protein kinase Lck, sequence (P06239 whole entry): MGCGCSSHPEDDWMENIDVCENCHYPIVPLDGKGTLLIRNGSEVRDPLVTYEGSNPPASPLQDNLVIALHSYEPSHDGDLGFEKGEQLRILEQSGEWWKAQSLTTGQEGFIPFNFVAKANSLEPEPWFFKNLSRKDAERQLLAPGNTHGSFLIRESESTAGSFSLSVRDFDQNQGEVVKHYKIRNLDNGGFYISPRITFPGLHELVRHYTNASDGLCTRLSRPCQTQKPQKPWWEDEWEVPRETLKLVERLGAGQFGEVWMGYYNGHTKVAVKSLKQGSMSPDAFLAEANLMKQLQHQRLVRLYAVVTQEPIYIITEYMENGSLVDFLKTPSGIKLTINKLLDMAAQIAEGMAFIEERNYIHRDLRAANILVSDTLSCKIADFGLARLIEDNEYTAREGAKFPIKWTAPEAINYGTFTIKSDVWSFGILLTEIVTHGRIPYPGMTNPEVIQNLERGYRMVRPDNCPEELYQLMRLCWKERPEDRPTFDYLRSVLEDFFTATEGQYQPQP
For `NC(=O)c1ncn([C@@H]2O[C@H](CO)[C@@H](O)[C@H]2O)n1` [RIBAVIRIN], the IC50 entry is on record as “Not Active”.
For `Nc1nnc(-c2cccc(Cl)c2Cl)c(N)n1` [LAMOTRIGINE], the IC50 entry is “Not Active”.
Same read-out and setting: the value for `NNC(=O)c1ccncc1` [ISONIAZID] was “Not Active”; that for `COC(=O)C1=C(C)NC(C)=C(C(=O)OC)C1c1ccccc1[N+](=O)[O-]` [NIFEDIPINE] was “Not Active”.

In general, IC50 refers to the midpoint of a concentration-inhibition curve. The Ki is the dissociation constant of the complex between target and ligand, obtained from inhibition or displacement.
